Test results reported in PubChem BioAssay (NCI).
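Cells were grown in 96-well plates and exposed to each compound for 48 hours at five concentrations; endpoints were interpolated linearly between bracketing concentrations, or set to the highest concentration if not reached. TGI denotes the concentration required for complete inhibition of growth.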

Legend:
Experiment in all cases: growth of human tumour cells (NCI), 48 h
786-0 renal = test system: 786-0 renal
A498 renal = test system: A498 renal
A549 NSCLC = test system: A549 NSCLC
ACHN renal = test system: ACHN renal
BT-549 breast = test system: BT-549 breast
CAKI-1 renal = test system: CAKI-1 renal
COLO 205 colon = test system: COLO 205 colon
DU-145 prostate = test system: DU-145 prostate
EKVX NSCLC = test system: EKVX NSCLC
HCT-116 colon = test system: HCT-116 colon
HCT-15 colon = test system: HCT-15 colon
HL-60(TB) leukemia = test system: HL-60(TB) leukemia
HOP-62 NSCLC = test system: HOP-62 NSCLC
HOP-92 NSCLC = test system: HOP-92 NSCLC
HS 578T breast = test system: HS 578T breast
HT29 colon = test system: HT29 colon
IGROV1 ovarian = test system: IGROV1 ovarian
K-562 leukemia = test system: K-562 leukemia
KM12 colon = test system: KM12 colon
M14 melanoma = test system: M14 melanoma
MALME-3M melanoma = test system: MALME-3M melanoma
MCF7 breast = test system: MCF7 breast
MDA-MB-231 breast = test system: MDA-MB-231 breast
MDA-MB-435 = test system: MDA-MB-435
MOLT-4 leukemia = test system: MOLT-4 leukemia
NCI-H226 lung = test system: NCI-H226 lung
NCI-H23 lung = test system: NCI-H23 lung
NCI-H460 lung = test system: NCI-H460 lung
NCI-H522 lung = test system: NCI-H522 lung
NCI/ADR-RES ovarian = test system: NCI/ADR-RES ovarian
OVCAR-3 ovarian = test system: OVCAR-3 ovarian
OVCAR-4 ovarian = test system: OVCAR-4 ovarian
OVCAR-5 ovarian = test system: OVCAR-5 ovarian
OVCAR-8 ovarian = test system: OVCAR-8 ovarian
PC-3 prostate = test system: PC-3 prostate
RPMI-8226 leukemia = test system: RPMI-8226 leukemia
RXF 393 renal = test system: RXF 393 renal
SF-268 CNS = test system: SF-268 CNS
SF-295 CNS = test system: SF-295 CNS
SF-539 CNS = test system: SF-539 CNS
SK-MEL-2 melanoma = test system: SK-MEL-2 melanoma
SK-MEL-28 melanoma = test system: SK-MEL-28 melanoma
SK-MEL-5 melanoma = test system: SK-MEL-5 melanoma
SK-OV-3 ovarian = test system: SK-OV-3 ovarian
SN12C renal = test system: SN12C renal
SNB-19 CNS = test system: SNB-19 CNS
SNB-75 CNS = test system: SNB-75 CNS
SR leukemia = test system: SR leukemia
SW-620 colon = test system: SW-620 colon
T-47D breast = test system: T-47D breast
TK-10 renal = test system: TK-10 renal
U251 CNS = test system: U251 CNS
UACC-257 melanoma = test system: UACC-257 melanoma
UACC-62 melanoma = test system: UACC-62 melanoma
UO-31 renal = test system: UO-31 renal
LOX IMVI melanoma = test system: LOX IMVI melanoma

In the case of `CC(C)(OCc1ccccc1)c1ccccc1P(c1ccccc1)c1ccccc1`, the TGI (786-0 renal) is reported as over 100 µM, the TGI (A498 renal) is reported as over 100 µM and the TGI (A549 NSCLC) is reported as over 100 µM. For the same compound, the TGI (ACHN renal) was over 100 µM, the TGI (BT-549 breast) was over 100 µM and the TGI (CAKI-1 renal) was over 100 µM. For the same compound, the TGI (COLO 205 colon) was over 100 µM, the TGI (DU-145 prostate) was over 100 µM and the TGI (EKVX NSCLC) was 91.2 µM. The TGI (HCT-116 colon) was over 100 µM, the TGI (HCT-15 colon) was over 100 µM and the TGI (HL-60(TB) leukemia) was 62.9 µM. The TGI (HOP-62 NSCLC) was over 100 µM, the TGI (HOP-92 NSCLC) was over 100 µM and the TGI (HS 578T breast) was over 100 µM. The TGI (HT29 colon) was over 100 µM, the TGI (IGROV1 ovarian) was over 100 µM and the TGI (K-562 leukemia) was over 100 µM. For the same compound, the TGI (KM12 colon) was 58 µM, the TGI (M14 melanoma) was over 100 µM and the TGI (MALME-3M melanoma) was over 100 µM. The TGI (MCF7 breast) was over 100 µM, the TGI (MDA-MB-231 breast) was over 100 µM and the TGI (MDA-MB-435) was over 100 µM. The TGI (MOLT-4 leukemia) was 84.5 µM, the TGI (NCI-H226 lung) was over 100 µM and the TGI (NCI-H23 lung) was 94 µM. For the same compound, the TGI (NCI-H460 lung) was over 100 µM, the TGI (NCI-H522 lung) was over 100 µM and the TGI (NCI/ADR-RES ovarian) was over 100 µM. It also gave a TGI (OVCAR-3 ovarian) of over 100 µM, a TGI (OVCAR-4 ovarian) of over 100 µM and a TGI (OVCAR-5 ovarian) of over 100 µM. For the same compound, the TGI (OVCAR-8 ovarian) was over 100 µM, the TGI (PC-3 prostate) was over 100 µM and the TGI (RPMI-8226 leukemia) was 22.8 µM. It also gave a TGI (RXF 393 renal) of over 100 µM, a TGI (SF-268 CNS) of over 100 µM and a TGI (SF-295 CNS) of over 100 µM. For the same compound, the TGI (SF-539 CNS) was over 100 µM, the TGI (SK-MEL-2 melanoma) was over 100 µM and the TGI (SK-MEL-28 melanoma) was over 100 µM. It also gave a TGI (SK-MEL-5 melanoma) of over 100 µM, a TGI (SK-OV-3 ovarian) of over 100 µM and a TGI (SN12C renal) of over 100 µM. It also gave a TGI (SNB-19 CNS) of over 100 µM, a TGI (SNB-75 CNS) of over 100 µM and a TGI (SR leukemia) of over 100 µM. The TGI (SW-620 colon) was over 100 µM, the TGI (T-47D breast) was over 100 µM and the TGI (TK-10 renal) was over 100 µM. The TGI (U251 CNS) was over 100 µM, the TGI (UACC-257 melanoma) was over 100 µM and the TGI (UACC-62 melanoma) was over 100 µM. The TGI (UO-31 renal) was over 100 µM.

Work on `O=C(CSc1nccc(=O)[nH]1)c1ccccc1` yielded a TGI (786-0 renal) of over 100 µM, a TGI (A549 NSCLC) of over 100 µM and a TGI (ACHN renal) of over 100 µM. It also gave a TGI (BT-549 breast) of over 100 µM, a TGI (CAKI-1 renal) of over 100 µM and a TGI (COLO 205 colon) of over 100 µM. For the same compound, the TGI (DU-145 prostate) was over 100 µM, the TGI (EKVX NSCLC) was over 100 µM and the TGI (HCT-116 colon) was over 100 µM. It also gave a TGI (HCT-15 colon) of over 100 µM, a TGI (HL-60(TB) leukemia) of over 100 µM and a TGI (HOP-62 NSCLC) of over 100 µM. The TGI (HOP-92 NSCLC) was over 100 µM, the TGI (HS 578T breast) was over 100 µM and the TGI (HT29 colon) was over 100 µM. For the same compound, the TGI (IGROV1 ovarian) was over 100 µM, the TGI (K-562 leukemia) was over 100 µM and the TGI (KM12 colon) was over 100 µM. For the same compound, the TGI (LOX IMVI melanoma) was over 100 µM, the TGI (M14 melanoma) was over 100 µM and the TGI (MALME-3M melanoma) was over 100 µM. For the same compound, the TGI (MCF7 breast) was over 100 µM, the TGI (MDA-MB-231 breast) was over 100 µM and the TGI (MDA-MB-435) was over 100 µM. For the same compound, the TGI (MOLT-4 leukemia) was over 100 µM, the TGI (NCI-H23 lung) was over 100 µM and the TGI (NCI-H460 lung) was over 100 µM. It also gave a TGI (NCI-H522 lung) of over 100 µM, a TGI (NCI/ADR-RES ovarian) of over 100 µM and a TGI (OVCAR-3 ovarian) of over 100 µM. For the same compound, the TGI (OVCAR-4 ovarian) was over 100 µM, the TGI (OVCAR-5 ovarian) was over 100 µM and the TGI (OVCAR-8 ovarian) was over 100 µM. It also gave a TGI (PC-3 prostate) of over 100 µM, a TGI (RXF 393 renal) of over 100 µM and a TGI (SF-268 CNS) of over 100 µM. For the same compound, the TGI (SF-295 CNS) was over 100 µM, the TGI (SF-539 CNS) was over 100 µM and the TGI (SK-MEL-2 melanoma) was over 100 µM. For the same compound, the TGI (SK-MEL-28 melanoma) was over 100 µM, the TGI (SK-MEL-5 melanoma) was over 100 µM and the TGI (SK-OV-3 ovarian) was over 100 µM. It also gave a TGI (SN12C renal) of over 100 µM, a TGI (SNB-19 CNS) of over 100 µM and a TGI (SNB-75 CNS) of over 100 µM. For the same compound, the TGI (SR leukemia) was over 100 µM, the TGI (SW-620 colon) was over 100 µM and the TGI (T-47D breast) was over 100 µM. For the same compound, the TGI (TK-10 renal) was over 100 µM, the TGI (U251 CNS) was over 100 µM and the TGI (UACC-257 melanoma) was over 100 µM. The TGI (UACC-62 melanoma) was over 100 µM and the TGI (UO-31 renal) was over 100 µM.
